This passage reports IC50 and viability, T/C results from PubChem BioAssay AID1963831 (Molecular Pharmacology Branch, DTP, NCI, 2024).

SMILES strings stand for the structures.
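Also: spheroids exposed to compounds for seven days.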
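For viability, T/C in this document: 100% = DMSO vehicle control viability.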

For one assay, the system named is 889142-216-R-J1-PDC complex spheroid viability. The assay is described as follows: Anticancer human tumor 889142-216-R-J1-PDC patient-derived bladder carcinoma cell line growth inhibition [POLQ]. The settings on record: curve of first compound; second compound 0.0316 µM. In a few lines:
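Three-cell-type spheroids modelling solid tumor plus stroma served as the readout system; POL inhibitors were tested individually and in combination, concentration ranges set by clinical Cmax where known.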
Consider `CC1COCCN1c1cc(C2(S(C)(=N)=O)CC2)nc(-c2ccnc3[nH]ccc23)n1` (configuration not stated) + Nc1ccc(C#CCN(C(=O)Cc2ncc(C(F)(F)F)cc2C(F)(F)F)c2ccc(F)cc2)nn1, for which the IC50 came out at 2.9 µM.

On to `CCCS(=O)(=O)Nc1ccc(F)c(C(=O)c2c[nH]c3ncc(-c4ccc(Cl)cc4)cc23)c1F` + Nc1ccc(C#CCN(C(=O)Cc2ncc(C(F)(F)F)cc2C(F)(F)F)c2ccc(F)cc2)nn1, for which the IC50 was determined as 7.49 µM.

In the case of `COc1cccc(OCCCN)c1-c1cc(Nc2cnc(C#N)cn2)n[nH]1` + Nc1ccc(C#CCN(C(=O)Cc2ncc(C(F)(F)F)cc2C(F)(F)F)c2ccc(F)cc2)nn1, the IC50 worked out at 0.136 µM.

For the compound `O=C(c1cc(Cc2n[nH]c(=O)c3ccccc23)ccc1F)N1CCN(C(=O)C2CC2)CC1` + Nc1ccc(C#CCN(C(=O)Cc2ncc(C(F)(F)F)cc2C(F)(F)F)c2ccc(F)cc2)nn1, the IC50 was above 10 µM.

Still in this assay, the particulars now being: curve of first compound; second compound 0.1 µM.
As to `CC1COCCN1c1cc(C2(S(C)(=N)=O)CC2)nc(-c2ccnc3[nH]ccc23)n1` (configuration not stated) + Nc1ccc(C#CCN(C(=O)Cc2ncc(C(F)(F)F)cc2C(F)(F)F)c2ccc(F)cc2)nn1, the IC50 was found to be 2.59 µM.

Regarding `CCCS(=O)(=O)Nc1ccc(F)c(C(=O)c2c[nH]c3ncc(-c4ccc(Cl)cc4)cc23)c1F` + Nc1ccc(C#CCN(C(=O)Cc2ncc(C(F)(F)F)cc2C(F)(F)F)c2ccc(F)cc2)nn1, the IC50 was 7.28 µM.

`COc1cccc(OCCCN)c1-c1cc(Nc2cnc(C#N)cn2)n[nH]1` + Nc1ccc(C#CCN(C(=O)Cc2ncc(C(F)(F)F)cc2C(F)(F)F)c2ccc(F)cc2)nn1: the IC50 came to 0.161 µM.

For `O=C(c1cc(Cc2n[nH]c(=O)c3ccccc23)ccc1F)N1CCN(C(=O)C2CC2)CC1` + Nc1ccc(C#CCN(C(=O)Cc2ncc(C(F)(F)F)cc2C(F)(F)F)c2ccc(F)cc2)nn1, the IC50 was above 10 µM.

The assay is the same for the next values; noted with them: curve of first compound; second compound 0.316 µM.
Turning to `CC1COCCN1c1cc(C2(S(C)(=N)=O)CC2)nc(-c2ccnc3[nH]ccc23)n1` (configuration not stated) + Nc1ccc(C#CCN(C(=O)Cc2ncc(C(F)(F)F)cc2C(F)(F)F)c2ccc(F)cc2)nn1, the IC50 was above 10 µM.

With `CCCS(=O)(=O)Nc1ccc(F)c(C(=O)c2c[nH]c3ncc(-c4ccc(Cl)cc4)cc23)c1F` + Nc1ccc(C#CCN(C(=O)Cc2ncc(C(F)(F)F)cc2C(F)(F)F)c2ccc(F)cc2)nn1, the IC50 was determined as 7.56 µM.

Take `COc1cccc(OCCCN)c1-c1cc(Nc2cnc(C#N)cn2)n[nH]1` + Nc1ccc(C#CCN(C(=O)Cc2ncc(C(F)(F)F)cc2C(F)(F)F)c2ccc(F)cc2)nn1: the IC50 was 0.0933 µM.

As to `O=C(c1cc(Cc2n[nH]c(=O)c3ccccc23)ccc1F)N1CCN(C(=O)C2CC2)CC1` + Nc1ccc(C#CCN(C(=O)Cc2ncc(C(F)(F)F)cc2C(F)(F)F)c2ccc(F)cc2)nn1, the IC50 is above 10 µM.

Staying with this assay, now noted: curve of first compound; second compound 1 µM.
As for `CC1COCCN1c1cc(C2(S(C)(=N)=O)CC2)nc(-c2ccnc3[nH]ccc23)n1` (configuration not stated) + Nc1ccc(C#CCN(C(=O)Cc2ncc(C(F)(F)F)cc2C(F)(F)F)c2ccc(F)cc2)nn1, the IC50 is above 10 µM.

For the compound `CCCS(=O)(=O)Nc1ccc(F)c(C(=O)c2c[nH]c3ncc(-c4ccc(Cl)cc4)cc23)c1F` + Nc1ccc(C#CCN(C(=O)Cc2ncc(C(F)(F)F)cc2C(F)(F)F)c2ccc(F)cc2)nn1, the IC50 is above 10 µM.

On to `COc1cccc(OCCCN)c1-c1cc(Nc2cnc(C#N)cn2)n[nH]1` + Nc1ccc(C#CCN(C(=O)Cc2ncc(C(F)(F)F)cc2C(F)(F)F)c2ccc(F)cc2)nn1, for which the IC50 turned out to be 0.0329 µM.

In the case of `O=C(c1cc(Cc2n[nH]c(=O)c3ccccc23)ccc1F)N1CCN(C(=O)C2CC2)CC1` + Nc1ccc(C#CCN(C(=O)Cc2ncc(C(F)(F)F)cc2C(F)(F)F)c2ccc(F)cc2)nn1, the IC50 is above 10 µM.

Staying with this assay, now noted: curve of first compound; second compound 3.16 µM.
On to `CC1COCCN1c1cc(C2(S(C)(=N)=O)CC2)nc(-c2ccnc3[nH]ccc23)n1` (configuration not stated) + Nc1ccc(C#CCN(C(=O)Cc2ncc(C(F)(F)F)cc2C(F)(F)F)c2ccc(F)cc2)nn1, for which the IC50 is above 10 µM.

On to `CCCS(=O)(=O)Nc1ccc(F)c(C(=O)c2c[nH]c3ncc(-c4ccc(Cl)cc4)cc23)c1F` + Nc1ccc(C#CCN(C(=O)Cc2ncc(C(F)(F)F)cc2C(F)(F)F)c2ccc(F)cc2)nn1, for which the IC50 came out at 9.53 µM.

Consider `COc1cccc(OCCCN)c1-c1cc(Nc2cnc(C#N)cn2)n[nH]1` + Nc1ccc(C#CCN(C(=O)Cc2ncc(C(F)(F)F)cc2C(F)(F)F)c2ccc(F)cc2)nn1, for which the IC50 was 0.0293 µM.

On to `O=C(c1cc(Cc2n[nH]c(=O)c3ccccc23)ccc1F)N1CCN(C(=O)C2CC2)CC1` + Nc1ccc(C#CCN(C(=O)Cc2ncc(C(F)(F)F)cc2C(F)(F)F)c2ccc(F)cc2)nn1, for which the IC50 was above 10 µM.

Still in this assay, the particulars now being: curve of first compound; second compound 10 µM.
As to `CC1COCCN1c1cc(C2(S(C)(=N)=O)CC2)nc(-c2ccnc3[nH]ccc23)n1` (configuration not stated) + Nc1ccc(C#CCN(C(=O)Cc2ncc(C(F)(F)F)cc2C(F)(F)F)c2ccc(F)cc2)nn1, the IC50 was above 10 µM.

For `CCCS(=O)(=O)Nc1ccc(F)c(C(=O)c2c[nH]c3ncc(-c4ccc(Cl)cc4)cc23)c1F` + Nc1ccc(C#CCN(C(=O)Cc2ncc(C(F)(F)F)cc2C(F)(F)F)c2ccc(F)cc2)nn1, the IC50 is above 10 µM.

As for `COc1cccc(OCCCN)c1-c1cc(Nc2cnc(C#N)cn2)n[nH]1` + Nc1ccc(C#CCN(C(=O)Cc2ncc(C(F)(F)F)cc2C(F)(F)F)c2ccc(F)cc2)nn1, the IC50 is above 1 µM.

As to `O=C(c1cc(Cc2n[nH]c(=O)c3ccccc23)ccc1F)N1CCN(C(=O)C2CC2)CC1` + Nc1ccc(C#CCN(C(=O)Cc2ncc(C(F)(F)F)cc2C(F)(F)F)c2ccc(F)cc2)nn1, the IC50 is above 10 µM.

The assay is the same for the next values; noted with them: second compound 0.0316 µM; first compound 0.00316 µM; stronger effect = lower value.
For `COc1cccc(OCCCN)c1-c1cc(Nc2cnc(C#N)cn2)n[nH]1` + Nc1ccc(C#CCN(C(=O)Cc2ncc(C(F)(F)F)cc2C(F)(F)F)c2ccc(F)cc2)nn1, the viability, T/C is 100%.

The same assay, now with this note: second compound 0.0316 µM; first compound 0.01 µM; stronger effect = lower value.
With `COc1cccc(OCCCN)c1-c1cc(Nc2cnc(C#N)cn2)n[nH]1` + Nc1ccc(C#CCN(C(=O)Cc2ncc(C(F)(F)F)cc2C(F)(F)F)c2ccc(F)cc2)nn1, the viability, T/C was 77.4%.

The same assay, now with this note: second compound 0.0316 µM; first compound 0.0316 µM; stronger effect = lower value.
In the case of `CC1COCCN1c1cc(C2(S(C)(=N)=O)CC2)nc(-c2ccnc3[nH]ccc23)n1` (configuration not stated) + Nc1ccc(C#CCN(C(=O)Cc2ncc(C(F)(F)F)cc2C(F)(F)F)c2ccc(F)cc2)nn1, the viability, T/C is 101%.

For `CCCS(=O)(=O)Nc1ccc(F)c(C(=O)c2c[nH]c3ncc(-c4ccc(Cl)cc4)cc23)c1F` + Nc1ccc(C#CCN(C(=O)Cc2ncc(C(F)(F)F)cc2C(F)(F)F)c2ccc(F)cc2)nn1, the viability, T/C was 97.8%.

Take `COc1cccc(OCCCN)c1-c1cc(Nc2cnc(C#N)cn2)n[nH]1` + Nc1ccc(C#CCN(C(=O)Cc2ncc(C(F)(F)F)cc2C(F)(F)F)c2ccc(F)cc2)nn1: the viability, T/C is 60.2%.

With `O=C(c1cc(Cc2n[nH]c(=O)c3ccccc23)ccc1F)N1CCN(C(=O)C2CC2)CC1` + Nc1ccc(C#CCN(C(=O)Cc2ncc(C(F)(F)F)cc2C(F)(F)F)c2ccc(F)cc2)nn1, the viability, T/C is 94%.

Staying with this assay, now noted: second compound 0.0316 µM; first compound 0.1 µM; stronger effect = lower value.
`CC1COCCN1c1cc(C2(S(C)(=N)=O)CC2)nc(-c2ccnc3[nH]ccc23)n1` (configuration not stated) + Nc1ccc(C#CCN(C(=O)Cc2ncc(C(F)(F)F)cc2C(F)(F)F)c2ccc(F)cc2)nn1: the viability, T/C is 82%.

For `CCCS(=O)(=O)Nc1ccc(F)c(C(=O)c2c[nH]c3ncc(-c4ccc(Cl)cc4)cc23)c1F` + Nc1ccc(C#CCN(C(=O)Cc2ncc(C(F)(F)F)cc2C(F)(F)F)c2ccc(F)cc2)nn1, the viability, T/C is 118%.

With `COc1cccc(OCCCN)c1-c1cc(Nc2cnc(C#N)cn2)n[nH]1` + Nc1ccc(C#CCN(C(=O)Cc2ncc(C(F)(F)F)cc2C(F)(F)F)c2ccc(F)cc2)nn1, the viability, T/C is 45.8%.

For `O=C(c1cc(Cc2n[nH]c(=O)c3ccccc23)ccc1F)N1CCN(C(=O)C2CC2)CC1` + Nc1ccc(C#CCN(C(=O)Cc2ncc(C(F)(F)F)cc2C(F)(F)F)c2ccc(F)cc2)nn1, the viability, T/C is 93%.

The assay is the same for the next values; noted with them: second compound 0.0316 µM; first compound 0.316 µM; stronger effect = lower value.
In the case of `CC1COCCN1c1cc(C2(S(C)(=N)=O)CC2)nc(-c2ccnc3[nH]ccc23)n1` (configuration not stated) + Nc1ccc(C#CCN(C(=O)Cc2ncc(C(F)(F)F)cc2C(F)(F)F)c2ccc(F)cc2)nn1, the viability, T/C is 70.8%.

As to `CCCS(=O)(=O)Nc1ccc(F)c(C(=O)c2c[nH]c3ncc(-c4ccc(Cl)cc4)cc23)c1F` + Nc1ccc(C#CCN(C(=O)Cc2ncc(C(F)(F)F)cc2C(F)(F)F)c2ccc(F)cc2)nn1, the viability, T/C is 122%.

Turning to `COc1cccc(OCCCN)c1-c1cc(Nc2cnc(C#N)cn2)n[nH]1` + Nc1ccc(C#CCN(C(=O)Cc2ncc(C(F)(F)F)cc2C(F)(F)F)c2ccc(F)cc2)nn1, the viability, T/C was 51%.

For `O=C(c1cc(Cc2n[nH]c(=O)c3ccccc23)ccc1F)N1CCN(C(=O)C2CC2)CC1` + Nc1ccc(C#CCN(C(=O)Cc2ncc(C(F)(F)F)cc2C(F)(F)F)c2ccc(F)cc2)nn1, the viability, T/C was 66.3%.

Staying with this assay, now noted: second compound 0.0316 µM; first compound 1 µM; stronger effect = lower value.
For the compound `CC1COCCN1c1cc(C2(S(C)(=N)=O)CC2)nc(-c2ccnc3[nH]ccc23)n1` (configuration not stated) + Nc1ccc(C#CCN(C(=O)Cc2ncc(C(F)(F)F)cc2C(F)(F)F)c2ccc(F)cc2)nn1, the viability, T/C is 59.3%.

On to `CCCS(=O)(=O)Nc1ccc(F)c(C(=O)c2c[nH]c3ncc(-c4ccc(Cl)cc4)cc23)c1F` + Nc1ccc(C#CCN(C(=O)Cc2ncc(C(F)(F)F)cc2C(F)(F)F)c2ccc(F)cc2)nn1, for which the viability, T/C is 98.3%.

Consider `COc1cccc(OCCCN)c1-c1cc(Nc2cnc(C#N)cn2)n[nH]1` + Nc1ccc(C#CCN(C(=O)Cc2ncc(C(F)(F)F)cc2C(F)(F)F)c2ccc(F)cc2)nn1, for which the viability, T/C was 49%.

As to `O=C(c1cc(Cc2n[nH]c(=O)c3ccccc23)ccc1F)N1CCN(C(=O)C2CC2)CC1` + Nc1ccc(C#CCN(C(=O)Cc2ncc(C(F)(F)F)cc2C(F)(F)F)c2ccc(F)cc2)nn1, the viability, T/C is 118%.
